Measured values from ChEMBL document CHEMBL1136907, “Structural insight into human CK2alpha in complex with the potent inhibitor ellagic acid” (Bioorg Med Chem Lett, 2009).

Assays:
[1] = Inhibition of PKA
[2] = Inhibition of rat liver CK2 by Lineweaver-Burke double reciprocal plot analysis
[3] = Inhibition of rat liver CK2 catalytic activity
[4] = Inhibition of PKC

IC50 [1]: 2000 nM
Ki [2]: 20 nM
IC50 [3]: 40 nM
IC50 [4]: 8000 nM
SMILES: O=c1oc2c(O)c(O)cc3c(=O)oc4c(O)c(O)cc1c4c23 [ELLAGIC ACID]
